PMC6566410, “Novel Diamide-Based Benzenesulfonamides as Selective Carbonic Anhydrase IX Inhibitors Endowed with Antitumor Activity: Synthesis, Biological Evaluation and In Silico Insights” (International Journal of Molecular Sciences, 2019)

How the values were obtained:
hCA II = hCA II (Homo sapiens, UniProt P00918); experiment: stopped-flow CO2 hydrase assay
From the text: (§3) An Applied Photophysics stopped-flow instrument was used for assaying the CA catalysed CO2 hydration activity, as reported earlier [17]. The inhibition constants were obtained by non-linear least-squares methods using PRISM 3 and the Cheng-Prusoff equation as reported earlier, and represent the mean from at least three different determinations. The four tested CA isofoms were recombinant ones obtained in-house as reported earlier [26, 27, 28, 29].

MOLT-4 = experiment: NCI one-dose SRB assay; type: cell-based; settings: Homo sapiens, MOLT-4 (Leukemia), 1.00E-5 Molar, read-out: Growth Percent
Experimental: (§1) First, all diamide-based benzenesulfonamides herein reported 5a–h were screened for their antitumor activity at one dose (10^−5 M) assay against a panel of sixty cancer cell lines through the National Cancer Institute (NCI) Developmental Therapeutic Program (www.dtp.nci.nih.gov), according to US-NCI protocol. The cell growth and cell viability were evaluated using the sulforhodamine B (SRB) colorimetric assay.
(§2) This assay was carried out according to the protocol of the Drug Evaluation Branch, NCI, Bethesda. The cell growth and cell viability were evaluated using the sulforhodamine B (SRB) colorimetric assay, as reported earlier.

ACHN = experiment: NCI one-dose SRB assay; type: cell-based; settings: Homo sapiens, ACHN (Renal Cancer), 1.00E-5 Molar, read-out: Growth Percent
Experimental: as §1, §2

HCT-116 = experiment: NCI one-dose SRB assay; type: cell-based; settings: Homo sapiens, HCT-116 (Colon Cancer), 1.00E-5 Molar, read-out: Growth Percent
Experimental: as §1, §2

HT29 = experiment: NCI one-dose SRB assay; type: cell-based; settings: Homo sapiens, HT-29, HT29 (Colon Cancer), 1.00E-5 Molar, read-out: Growth Percent
Experimental: as §1, §2

MALME-3M = experiment: NCI one-dose SRB assay; type: cell-based; settings: Homo sapiens, MALME-3M (Melanoma), 1.00E-5 Molar, read-out: Growth Percent
Experimental: as §1, §2

A549/ATCC = experiment: NCI one-dose SRB assay; type: cell-based; settings: Homo sapiens, A549/ATCC (Non-Small Cell Lung Cancer), 1.00E-5 Molar, read-out: Growth Percent
Experimental: as §1, §2

SK-MEL-28 = experiment: NCI one-dose SRB assay; type: cell-based; settings: Homo sapiens, SK-MEL-28 (Melanoma), 1.00E-5 Molar, read-out: Growth Percent
Experimental: as §1, §2

T-47D = experiment: NCI one-dose SRB assay; type: cell-based; settings: Homo sapiens, T47D, T-47D (Breast Cancer), 1.00E-5 Molar, read-out: Growth Percent
Experimental: as §1, §2

HCC-2998 = experiment: NCI one-dose SRB assay; type: cell-based; settings: Homo sapiens, HCC-2998 (Colon Cancer), 1.00E-5 Molar, read-out: Growth Percent
Experimental: as §1, §2

NCI-H460 = experiment: NCI one-dose SRB assay; type: cell-based; settings: Homo sapiens, NCI-H460 (Non-Small Cell Lung Cancer), 1.00E-5 Molar, read-out: Growth Percent
Experimental: as §1, §2

RPMI-8226 = experiment: NCI one-dose SRB assay; type: cell-based; settings: Homo sapiens, RPMI-8226 (Leukemia), 1.00E-5 Molar, read-out: Growth Percent
Experimental: as §1, §2

SK-MEL-2 = experiment: NCI one-dose SRB assay; type: cell-based; settings: Homo sapiens, SK-MEL-2 (Melanoma), 1.00E-5 Molar, read-out: Growth Percent
Experimental: as §1, §2

UACC-62 = experiment: NCI one-dose SRB assay; type: cell-based; settings: Homo sapiens, UACC-62 (Melanoma), 1.00E-5 Molar, read-out: Growth Percent
Experimental: as §1, §2

M14 = experiment: NCI one-dose SRB assay; type: cell-based; settings: Homo sapiens, M14 (Melanoma), 1.00E-5 Molar, read-out: Growth Percent
Experimental: as §1, §2

U251 = experiment: NCI one-dose SRB assay; type: cell-based; settings: Homo sapiens, U-251, U251 (CNS Cancer), 1.00E-5 Molar, read-out: Growth Percent
Experimental: as §1, §2

SF-295 = experiment: NCI one-dose SRB assay; type: cell-based; settings: Homo sapiens, SF-295 (CNS Cancer), 1.00E-5 Molar, read-out: Growth Percent
Experimental: as §1, §2

KM12 = experiment: NCI one-dose SRB assay; type: cell-based; settings: Homo sapiens, KM12 (Colon Cancer), 1.00E-5 Molar, read-out: Growth Percent
Experimental: as §1, §2

PC-3 = experiment: NCI one-dose SRB assay; type: cell-based; settings: Homo sapiens, PC-3 (Prostate Cancer), 1.00E-5 Molar, read-out: Growth Percent
Experimental: as §1, §2

SW-620 = experiment: NCI one-dose SRB assay; type: cell-based; settings: Homo sapiens, SW-620 (Colon Cancer), 1.00E-5 Molar, read-out: Growth Percent
Experimental: as §1, §2

MDA-MB-468 = experiment: NCI one-dose SRB assay; type: cell-based; settings: Homo sapiens, MDA-MB-468 (Breast Cancer), 1.00E-5 Molar, read-out: Growth Percent
Experimental: as §1, §2

SNB-19 = experiment: NCI one-dose SRB assay; type: cell-based; settings: Homo sapiens, SNB-19 (CNS Cancer), 1.00E-5 Molar, read-out: Growth Percent
Experimental: as §1, §2

CCRF-CEM = experiment: NCI one-dose SRB assay; type: cell-based; settings: Homo sapiens, CCRF-CEM (Leukemia), 1.00E-5 Molar, read-out: Growth Percent
Experimental: as §1, §2

HS 578T = experiment: NCI one-dose SRB assay; type: cell-based; settings: Homo sapiens, HS 578T (Breast Cancer), 1.00E-5 Molar, read-out: Growth Percent
Experimental: as §1, §2

TK-10 = experiment: NCI one-dose SRB assay; type: cell-based; settings: Homo sapiens, TK-10 (Renal Cancer), 1.00E-5 Molar, read-out: Growth Percent
Experimental: as §1, §2

LOX IMVI = experiment: NCI one-dose SRB assay; type: cell-based; settings: Homo sapiens, LOX IMVI (Melanoma), 1.00E-5 Molar, read-out: Growth Percent
Experimental: as §1, §2

MDA-MB-231/ATCC = experiment: NCI one-dose SRB assay; type: cell-based; settings: Homo sapiens, MDA-MB-231/ATCC (Breast Cancer), 1.00E-5 Molar, read-out: Growth Percent
Experimental: as §1, §2

OVCAR-3 = experiment: NCI one-dose SRB assay; type: cell-based; settings: Homo sapiens, OVCAR-3 (Ovarian Cancer), 1.00E-5 Molar, read-out: Growth Percent
Experimental: as §1, §2

hCA I = hCA I (Homo sapiens, UniProt P00915); experiment: stopped-flow CO2 hydrase assay
From the text: as §3

UO-31 = experiment: NCI one-dose SRB assay; type: cell-based; settings: Homo sapiens; UO-31 (Renal Cancer), 1.00E-5 Molar, one dose; read-out: Growth Percent
Experimental: as §1
The obtained data were reported as mean-graph of the percentage growth of the different treated tumour cells (Supplementary Materials). Exploration of results for this assay confirmed that the examined diamide-based benzenesulfonamides 5a–h had non-significant activity towards most NCI cancer cell lines.
as §2

hCA I, sequence (P00915 whole entry): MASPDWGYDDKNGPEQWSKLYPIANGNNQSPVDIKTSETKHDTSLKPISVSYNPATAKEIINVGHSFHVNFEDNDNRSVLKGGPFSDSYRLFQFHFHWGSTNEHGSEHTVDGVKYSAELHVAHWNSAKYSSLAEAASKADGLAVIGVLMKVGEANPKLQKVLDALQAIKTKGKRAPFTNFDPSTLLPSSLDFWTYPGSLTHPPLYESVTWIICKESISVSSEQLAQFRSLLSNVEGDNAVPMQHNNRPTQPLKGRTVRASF

Row | Structure (SMILES) | Ki (hCA II) [nM] | melting point [°C] | activity at 10 µM (MOLT-4) [%] | activity at 10 µM (ACHN) [%] | activity at 10 µM (HCT-116) [%] | activity at 10 µM (HT29) [%] | activity at 10 µM (MALME-3M) [%] | activity at 10 µM (A549/ATCC) [%] | activity at 10 µM (SK-MEL-28) [%] | activity at 10 µM (T-47D) [%] | activity at 10 µM (HCC-2998) [%] | activity at 10 µM (NCI-H460) [%] | activity at 10 µM (RPMI-8226) [%] | activity at 10 µM (SK-MEL-2) [%] | activity at 10 µM (UACC-62) [%] | activity at 10 µM (M14) [%] | activity at 10 µM (U251) [%] | activity at 10 µM (SF-295) [%] | activity at 10 µM (KM12) [%] | activity at 10 µM (PC-3) [%] | further results
1 | COc1ccc(C=C(NC(=O)c2ccccc2)C(=O)Nc2ccc(S(N)(=O)=O)cc2)c(OC)c1 [Compound 5f, N-(1-(2,4-Dimethoxyphenyl)-3-oxo-3-((4-sulfamoylphenyl)amino)prop-1-en-2-yl)benzamide] | 294 | 245 to 250 | 114 | 103 | 104 | 106 | 104 | 94.9 | 109 | 101 | 110 | 109 | 109 | 102 | 97.2 | 111 | 100 | 110 | 109 | 96.3 | activity at 10 µM (SW-620): 107%; activity at 10 µM (MDA-MB-468): 74.8%; activity at 10 µM (SNB-19): 102%; activity at 10 µM (CCRF-CEM): 107%; activity at 10 µM (HS 578T): 106%; activity at 10 µM (TK-10): 112%; activity at 10 µM (LOX IMVI): 99.8%; activity at 10 µM (MDA-MB-231/ATCC): 105%; activity at 10 µM (OVCAR-3): 113%; Ki (hCA I): 5.13 µM; activity at 10 µM (UO-31): 82.5%
2 | COc1ccc(C=C(NC(=O)c2ccccc2)C(=O)Nc2ccc(S(N)(=O)=O)cc2)cc1OC [Compound 5g, N-(1-(3,4-Dimethoxyphenyl)-3-oxo-3-((4-sulfamoylphenyl)amino)prop-1-en-2-yl)benzamide] | 448 | 250 to 253 | 107 | 99.8 | 109 | 106 | 101 | 106 | 109 | 100 | 106 | 107 | 107 | 102 | 94.3 | 113 | 96.3 | 102 | 104 | 103 | activity at 10 µM (SW-620): 102%; activity at 10 µM (MDA-MB-468): 111%; activity at 10 µM (SNB-19): 100%; activity at 10 µM (CCRF-CEM): 109%; activity at 10 µM (HS 578T): 94.8%; activity at 10 µM (TK-10): 110%; activity at 10 µM (LOX IMVI): 100%; activity at 10 µM (MDA-MB-231/ATCC): 105%; activity at 10 µM (OVCAR-3): 107%; Ki (hCA I): 2.21 µM; activity at 10 µM (UO-31): 77.9%
